Assay results published in patent publication US20230157952A1, “METHOD FOR IMPROVING THE STABILITY OF A PHARMACEUTICAL COMPOSITION COMPRISING A HIGH PENETRATION DRUG, AND THE PHARMACEUTICAL COMPOSITION OBTAINED THEREFROM” (Techfields Inc., priority 2020, published 2023).

Assay: Effect of concentration on the stability of the solution (purity over time)
Settings: for Stability of common ester over the concentrations tested: 0.01% to 10% (or higher) in 50% ethanol at 25° C.; for Purity (%) at Day 3 / Purity (%) at Day 7 / Purity (%) at hr 0 / Purity (%) at hr 24 / Purity(%) at Day 14 / Purity(%) at Day 28 / Purity(%) at Day 21: 25° C.

CC(C)OC(=O)c1ccccc1 [Isopropyl benzoate, reference compound]
Stability of common ester over the concentrations tested: very stable | Purity (%) at Day 3 (0.01 wt % in 50% ethanol): 98.1% | Purity (%) at Day 7 (0.01 wt % in 50% ethanol): 98.3% | Purity (%) at hr 0 (0.01 wt % in 50% ethanol): 98.4% | Purity (%) at hr 24 (0.01 wt % in 50% ethanol): 98.3% | Purity(%) at Day 14 (0.01 wt % in 50% ethanol): 98.2% | Purity(%) at Day 28 (0.01 wt % in 50% ethanol): 98.2% | Purity (%) at Day 3 (0.1 wt % in 50% ethanol): 98.4% | Purity (%) at Day 7 (0.1 wt % in 50% ethanol): 98.4% | Purity (%) at hr 0 (0.1 wt % in 50% ethanol): 98.4% | Purity (%) at hr 24 (0.1 wt % in 50% ethanol): 98.5% | Purity(%) at Day 14 (0.1 wt % in 50% ethanol): 98.3% | Purity(%) at Day 28 (0.1 wt % in 50% ethanol): 98.3% | Purity (%) at Day 3 (1 wt % in 50% ethanol): 98.5% | Purity (%) at Day 7 (1 wt % in 50% ethanol): 98.4% | Purity (%) at hr 0 (1 wt % in 50% ethanol): 98.5% | Purity (%) at hr 24 (1 wt % in 50% ethanol): 98.4% | Purity(%) at Day 14 (1 wt % in 50% ethanol): 98.3% | Purity(%) at Day 28 (1 wt % in 50% ethanol): 98.3% | Purity (%) at Day 3 (3 wt % in 50% ethanol): 98.4% | Purity (%) at Day 7 (3 wt % in 50% ethanol): 98.4% | Purity (%) at hr 0 (3 wt % in 50% ethanol): 98.4% | Purity (%) at hr 24 (3 wt % in 50% ethanol): 98.6% | Purity(%) at Day 14 (3 wt % in 50% ethanol): 98.4% | Purity(%) at Day 28 (3 wt % in 50% ethanol): 98.4% | Purity (%) at Day 3 (5 wt % in 50% ethanol): 98.7% | Purity (%) at Day 7 (5 wt % in 50% ethanol): 98.4% | Purity (%) at hr 0 (5 wt % in 50% ethanol): 98.5% | Purity (%) at hr 24 (5 wt % in 50% ethanol): 98.4% | Purity(%) at Day 14 (5 wt % in 50% ethanol): 98.4% | Purity(%) at Day 28 (5 wt % in 50% ethanol): 98.4% | Purity (%) at Day 3 (10 wt % in 50% ethanol): 98.4% | Purity (%) at Day 7 (10 wt % in 50% ethanol): 98.4% | Purity (%) at hr 0 (10 wt % in 50% ethanol): 98.5% | Purity (%) at hr 24 (10 wt % in 50% ethanol): 98.8% | Purity(%) at Day 14 (10 wt % in 50% ethanol): 98.4% | Purity(%) at Day 28 (10 wt % in 50% ethanol): 98.4%

CC(C)OC(=O)C(N)Cc1ccccc1 (centres unmarked) [Isopropyl 2-amino-3-phenylpropanoate, reference compound]
Stability of common ester over the concentrations tested: quite stable | Purity (%) at Day 3 (0.01 wt % in 50% ethanol): 97.4% | Purity (%) at Day 7 (0.01 wt % in 50% ethanol): 97.1% | Purity (%) at hr 0 (0.01 wt % in 50% ethanol): 98.4% | Purity (%) at hr 24 (0.01 wt % in 50% ethanol): 98.3% | Purity(%) at Day 14 (0.01 wt % in 50% ethanol): 96.5% | Purity(%) at Day 21 (0.01 wt % in 50% ethanol): 95.9% | Purity(%) at Day 28 (0.01 wt % in 50% ethanol): 95.1% | Purity (%) at Day 3 (0.1 wt % in 50% ethanol): 97.6% | Purity (%) at Day 7 (0.1 wt % in 50% ethanol): 97.3% | Purity (%) at hr 0 (0.1 wt % in 50% ethanol): 98.5% | Purity (%) at hr 24 (0.1 wt % in 50% ethanol): 98.4% | Purity(%) at Day 14 (0.1 wt % in 50% ethanol): 96.8% | Purity(%) at Day 21 (0.1 wt % in 50% ethanol): 96.5% | Purity(%) at Day 28 (0.1 wt % in 50% ethanol): 95.7% | Purity (%) at Day 3 (1 wt % in 50% ethanol): 97.9% | Purity (%) at Day 7 (1 wt % in 50% ethanol): 97.6% | Purity (%) at hr 0 (1 wt % in 50% ethanol): 98.7% | Purity (%) at hr 24 (1 wt % in 50% ethanol): 98.5% | Purity(%) at Day 14 (1 wt % in 50% ethanol): 97.2% | Purity(%) at Day 21 (1 wt % in 50% ethanol): 96.8% | Purity(%) at Day 28 (1 wt % in 50% ethanol): 96.1% | Purity (%) at Day 3 (3 wt % in 50% ethanol): 98.2% | Purity (%) at Day 7 (3 wt % in 50% ethanol): 97.8% | Purity (%) at hr 0 (3 wt % in 50% ethanol): 98.7% | Purity (%) at hr 24 (3 wt % in 50% ethanol): 98.6% | Purity(%) at Day 14 (3 wt % in 50% ethanol): 97.4% | Purity(%) at Day 21 (3 wt % in 50% ethanol): 97.0% | Purity(%) at Day 28 (3 wt % in 50% ethanol): 96.5% | Purity (%) at Day 3 (5 wt % in 50% ethanol): 98.5% | Purity (%) at Day 7 (5 wt % in 50% ethanol): 98.4% | Purity (%) at hr 0 (5 wt % in 50% ethanol): 98.7% | Purity (%) at hr 24 (5 wt % in 50% ethanol): 98.6% | Purity(%) at Day 14 (5 wt % in 50% ethanol): 98.2% | Purity(%) at Day 21 (5 wt % in 50% ethanol): 97.8% | Purity(%) at Day 28 (5 wt % in 50% ethanol): 97.1% | Purity (%) at Day 3 (10 wt % in 50% ethanol): 98.6% | Purity (%) at Day 7 (10 wt % in 50% ethanol): 98.5% | Purity (%) at hr 0 (10 wt % in 50% ethanol): 98.8% | Purity (%) at hr 24 (10 wt % in 50% ethanol): 98.7% | Purity(%) at Day 14 (10 wt % in 50% ethanol): 98.3% | Purity(%) at Day 21 (10 wt % in 50% ethanol): 97.9% | Purity(%) at Day 28 (10 wt % in 50% ethanol): 97.3%

CCN(CC)CCOC(=O)CCCc1ccc(N(CCCl)CCCl)cc1.Cl
Purity (%) at Day 3 (0.01 wt % in water): 83.1% | Purity (%) at Day 7 (0.01 wt % in water): 72.9% | Purity (%) at hr 0 (0.01 wt % in water): 97.8% | Purity(%) at Day 14 (0.01 wt % in water): 56.9% | Purity(%) at Day 21 (0.01 wt % in water): 43.2% | Purity(%) at Day 28 (0.01 wt % in water): 34.3% | Purity (%) at Day 3 (0.1 wt % in water): 94.1% | Purity (%) at Day 7 (0.1 wt % in water): 89.6% | Purity (%) at hr 0 (0.1 wt % in water): 97.9% | Purity(%) at Day 14 (0.1 wt % in water): 81.5% | Purity(%) at Day 21 (0.1 wt % in water): 73.7% | Purity(%) at Day 28 (0.1 wt % in water): 62.5% | Purity (%) at Day 3 (1 wt % in water): 95.1% | Purity (%) at Day 7 (1 wt % in water): 91.9% | Purity (%) at hr 0 (1 wt % in water): 98.2% | Purity(%) at Day 14 (1 wt % in water): 85.9% | Purity(%) at Day 21 (1 wt % in water): 81.9% | Purity(%) at Day 28 (1 wt % in water): 76.9% | Purity (%) at Day 3 (3 wt % in water): 96.2% | Purity (%) at Day 7 (3 wt % in water): 95.0% | Purity (%) at hr 0 (3 wt % in water): 98.4% | Purity(%) at Day 14 (3 wt % in water): 91.0% | Purity(%) at Day 21 (3 wt % in water): 87.3% | Purity(%) at Day 28 (3 wt % in water): 83.7% | Purity (%) at Day 3 (5 wt % in water): 98.2% | Purity (%) at Day 7 (5 wt % in water): 97.8% | Purity (%) at hr 0 (5 wt % in water): 98.5% | Purity(%) at Day 14 (5 wt % in water): 97.0% | Purity(%) at Day 21 (5 wt % in water): 96.3% | Purity(%) at Day 28 (5 wt % in water): 95.0% | Purity (%) at Day 3 (7 wt % in water): 98.4% | Purity (%) at Day 7 (7 wt % in water): 98.2% | Purity (%) at hr 0 (7 wt % in water): 98.5% | Purity(%) at Day 14 (7 wt % in water): 98.0% | Purity(%) at Day 21 (7 wt % in water): 97.6% | Purity(%) at Day 28 (7 wt % in water): 97.4% | Purity (%) at Day 3 (8 wt % in water): 98. % | Purity (%) at Day 7 (8 wt % in water): 98.3% | Purity (%) at hr 0 (8 wt % in water): 98.5% | Purity(%) at Day 14 (8 wt % in water): 97.9% | Purity(%) at Day 21 (8 wt % in water): 97.7% | Purity(%) at Day 28 (8 wt % in water): 97.3% | Purity (%) at Day 3 (10 wt % in water): 98.5% | Purity (%) at Day 7 (10 wt % in water): 98.3% | Purity (%) at hr 0 (10 wt % in water): 98.6% | Purity(%) at Day 14 (10 wt % in water): 98.2% | Purity(%) at Day 21 (10 wt % in water): 97.7% | Purity(%) at Day 28 (10 wt % in water): 97.4% | Purity (%) at Day 3 (15 wt % in water): 98.5% | Purity (%) at Day 7 (15 wt % in water): 98.4% | Purity (%) at hr 0 (15 wt % in water): 98.6% | Purity(%) at Day 14 (15 wt % in water): 98.1% | Purity(%) at Day 21 (15 wt % in water): 97.7% | Purity(%) at Day 28 (15 wt % in water): 97.3% | Purity (%) at Day 3 (20 wt % in water): 98.4% | Purity (%) at Day 7 (20 wt % in water): 98.3% | Purity (%) at hr 0 (20 wt % in water): 98.6% | Purity(%) at Day 14 (20 wt % in water): 98.2% | Purity(%) at Day 21 (20 wt % in water): 97.8% | Purity(%) at Day 28 (20 wt % in water): 97.3% | Purity (%) at Day 3 (30 wt % in water): 98.4% | Purity (%) at Day 7 (30 wt % in water): 98.4% | Purity (%) at hr 0 (30 wt % in water): 98.5% | Purity(%) at Day 14 (30 wt % in water): 98.3% | Purity(%) at Day 21 (30 wt % in water): 97.7% | Purity(%) at Day 28 (30 wt % in water): 97.4% | Purity (%) at Day 3 (50 wt % in water): 98.4% | Purity (%) at Day 7 (50 wt % in water): 98.3% | Purity (%) at hr 0 (50 wt % in water): 98.6% | Purity(%) at Day 14 (50 wt % in water): 98.2% | Purity(%) at Day 21 (50 wt % in water): 97.8% | Purity(%) at Day 28 (50 wt % in water): 97.4%
